Structures can show the parent of a compound that is named as a salt. Starred links: 1 amine or outer side, 2 acyl side, 3 side chain; linkers in the order of their positions; H or OH if unused. Non-standard residues stand in square brackets, D forms with d. Residues, ends and D or L forms follow the SMILES beside them. Groups on a side chain read outwards from the residue. *: point of attachment. Trp(7-OMe) = COc1cccc2c(C[C@H](N)C(=O)O)c[nH]c12; Piperazinyl(4-CH2COOH) = O=C(O)CN1CCN(*)CC1; 3Pal(6-NH2) = Nc1ccc(C[C@H](N)C(=O)O)cn1; AEF = NCCOc1ccc(C[C@H](N)C(=O)O)cc1; NMeY = CN[C@@H](Cc1ccc(O)cc1)C(=O)O; NMeCba = CN[C@@H](CC1CCC1)C(=O)O; NMeF = CN[C@@H](Cc1ccccc1)C(=O)O; Ahp(2) = CCCCC[C@H](N)C(=O)O; Cba = N[C@@H](CC1CCC1)C(=O)O; hSer = N[C@@H](CCO)C(=O)O; CO = O=C([*:1])[*:2]
What was measured:
mouse FAP [1] = biological target: T1, mouse FAP (Mus musculus, UniProt P97321); assay: Surface plasmon resonance (SPR) for peptide affinity, mouse FAP; type: binding
T1 construct: biotinylated His, Avi tag, mouse FAP (26-761, FAP-M82Q5); His; Avi tag (biotinylated); purchased AcroBiosystems FAP-M82Q5
T1 sequence (P97321 26-761): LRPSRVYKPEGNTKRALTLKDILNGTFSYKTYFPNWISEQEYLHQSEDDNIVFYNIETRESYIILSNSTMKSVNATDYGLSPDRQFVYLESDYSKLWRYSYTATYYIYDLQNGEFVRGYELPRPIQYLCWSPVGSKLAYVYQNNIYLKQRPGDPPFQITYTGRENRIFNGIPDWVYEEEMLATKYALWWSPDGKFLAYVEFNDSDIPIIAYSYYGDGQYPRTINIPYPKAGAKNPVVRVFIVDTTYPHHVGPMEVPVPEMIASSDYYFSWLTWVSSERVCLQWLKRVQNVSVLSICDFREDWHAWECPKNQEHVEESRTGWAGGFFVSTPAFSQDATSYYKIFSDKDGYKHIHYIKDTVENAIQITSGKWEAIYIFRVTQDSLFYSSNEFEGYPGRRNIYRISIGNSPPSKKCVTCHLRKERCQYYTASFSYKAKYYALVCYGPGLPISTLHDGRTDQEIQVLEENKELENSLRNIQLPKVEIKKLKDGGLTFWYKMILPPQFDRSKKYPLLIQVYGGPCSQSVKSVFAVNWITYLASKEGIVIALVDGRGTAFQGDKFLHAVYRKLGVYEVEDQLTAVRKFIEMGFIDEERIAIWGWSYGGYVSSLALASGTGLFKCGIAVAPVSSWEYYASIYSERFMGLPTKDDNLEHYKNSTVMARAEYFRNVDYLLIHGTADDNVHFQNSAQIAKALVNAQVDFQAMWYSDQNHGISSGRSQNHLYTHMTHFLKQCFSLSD
Outline: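 Biotinylated His/Avi-tagged FAP ectodomains (human 26-760, mouse 26-761) captured or immobilized on Biacore sensor chips; peptides run at 25 °C in HBS-EP+ pH 7.6 with 2% DMSO, single-cycle kinetics, 8 concentrations. KD from 1:1 binding-model fit of sensorgrams.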

human FAP = biological target: T2, human FAP (Homo sapiens, UniProt Q12884); assay: Enzymatic FAP competition assay (Z-Gly-Pro-AMC fluorescence), human FAP; type: biochemical; details: read-out: h. FAP, Enz., IC50
T2 construct: the biotinylated His, Avi tag, human FAP (26-760, FAP-H82Q6); His; Avi tag (biotinylated); purchased AcroBiosystems FAP-H82Q6
T2 sequence (Q12884 26-760): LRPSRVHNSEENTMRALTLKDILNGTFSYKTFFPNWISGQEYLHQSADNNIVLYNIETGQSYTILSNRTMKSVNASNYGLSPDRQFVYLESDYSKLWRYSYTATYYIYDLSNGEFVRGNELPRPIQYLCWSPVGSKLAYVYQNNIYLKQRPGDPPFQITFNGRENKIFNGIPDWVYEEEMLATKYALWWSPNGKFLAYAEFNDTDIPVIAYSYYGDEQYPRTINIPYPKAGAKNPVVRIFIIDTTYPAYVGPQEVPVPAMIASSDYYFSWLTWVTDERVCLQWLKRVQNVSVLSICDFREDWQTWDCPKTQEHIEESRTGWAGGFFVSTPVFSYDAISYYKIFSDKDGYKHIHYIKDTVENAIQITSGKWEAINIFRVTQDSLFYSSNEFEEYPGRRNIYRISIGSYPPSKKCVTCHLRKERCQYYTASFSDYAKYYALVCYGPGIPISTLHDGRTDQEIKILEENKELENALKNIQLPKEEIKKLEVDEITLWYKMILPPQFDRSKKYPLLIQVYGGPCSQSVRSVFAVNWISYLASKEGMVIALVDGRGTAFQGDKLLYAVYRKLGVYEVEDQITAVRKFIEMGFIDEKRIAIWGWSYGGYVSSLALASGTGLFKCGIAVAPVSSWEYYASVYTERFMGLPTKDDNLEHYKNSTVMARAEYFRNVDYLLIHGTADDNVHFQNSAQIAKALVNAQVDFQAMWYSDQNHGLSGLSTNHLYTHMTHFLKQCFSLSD
Outline: (§1)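 Biotinylated His/Avi-tagged FAP ectodomain (human 26-760, mouse 26-761) at 0.01 nM, preincubated 24 h with peptides (14 concentrations, up to 1 μM) in pH 7.5 phosphate, 150 mM NaCl, 0.05% Tween20, 1% DMSO. Then 50 μM Z-Gly-Pro-AMC, 4 h at 22-24° C; AMC fluorescence (380/460 nm) gave IC50 from duplicate points.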

mouse FAP [2] = biological target: T1, mouse FAP; assay: Enzymatic FAP competition assay (Z-Gly-Pro-AMC fluorescence), mouse FAP; type: biochemical; details: read-out: m. FAP, Enz., IC50
Outline: as §1

Row | Structure (SMILES) | Kd (mouse FAP [1]) [nM] | IC50 (human FAP) [nM] | IC50 (mouse FAP [2]) [nM]
1 | CCCCC[C@@H]1NC(=O)[C@H](Cc2ccc(OCCN)cc2)NC(=O)[C@H](Cc2ccccc2)N(C)C(=O)CNC(=O)CNC(=O)[C@H]2CCCN2C(=O)[C@H](CC(=O)O)NC(=O)[C@H](Cc2ccc(N)nc2)NC(=O)CNC(=O)[C@H](Cc2c[nH]c3ccccc23)NC1=O [Example A45, Gly-Gly-NMePhe-F(4OEtNH2)-Ahp-Trp-Gly-3PyA(6NH2)-Asp-D-Pro, TFA salt] (cyclo([AEF][Ahp(2)]WG[3Pal(6-NH2)]D[dP]GG[NMeF])) | 0.54 | 0.192 | 0.93
2 | CCCCC[C@@H]1NC(=O)[C@H](Cc2ccc(OCCN)cc2)NC(=O)[C@H](Cc2ccccc2)N(C)C(=O)CNC(=O)[C@H](CCCCNC(=O)N2CCN(CC(=O)O)CC2)NC(=O)[C@H]2CCCN2C(=O)[C@H](CC(=O)O)NC(=O)[C@H](Cc2ccc(O)cc2)NC(=O)CNC(=O)[C@H](Cc2c[nH]c3ccccc23)NC1=O [Example A46, K(COpipzaa)-Gly-NMePhe-F(4OEtNH2)-Ahp-Trp-Gly-Tyr-Asp-D-Pro, TFA salt] (cyclo([AEF][Ahp(2)]WGYD[dP]K([CO-Piperazinyl(4-CH2COOH)])G[NMeF])) | 2.2 | 0.5 | 2.8
3 | CCCCC[C@@H]1NC(=O)[C@H](Cc2ccc(OCCN)cc2)NC(=O)[C@H](Cc2ccccc2)N(C)C(=O)CNC(=O)[C@H](CCO)NC(=O)[C@H]2CCCN2C(=O)[C@H](CC(=O)O)NC(=O)[C@H](Cc2ccc(O)cc2)NC(=O)CNC(=O)[C@H](Cc2c[nH]c3ccccc23)NC1=O [Example A47, hSer-Gly-NMePhe-F(4OEtNH2)-Ahp-Trp-Gly-Tyr-Asp-D-Pro, TFA salt] (cyclo([AEF][Ahp(2)]WGYD[dP][hSer]G[NMeF])) | 0.48 | 0.181 | 0.6
4 | CCCCC[C@@H]1NC(=O)[C@H](Cc2ccc(O)cc2)NC(=O)[C@H](Cc2ccccc2)N(C)C(=O)CNC(=O)CNC(=O)[C@H]2CCCN2C(=O)[C@H](CC(=O)O)NC(=O)[C@H](Cc2ccc(O)cc2)N(C)C(=O)CNC(=O)[C@H](Cc2c[nH]c3ccccc23)NC1=O [Example A50, 2-((9S,12S,15S,18S,24S,27S,32aR)-18-((1H-indol-3-yl)methyl)-9-benzyl-12,24-bis(4-hydroxybenzyl)-8,23-dimethyl-1,4,7,10,13,16,19,22,25,28-decaoxo-15-pentyldotriacontahydropyrrolo[1,2-a][1,4,7,10,13,16,19,22,25,28]decaazacyclotriacontin-27-yl)acetic acid] (cyclo([Ahp(2)]WG[NMeY]D[dP]GG[NMeF]Y)) | 2.8 | 0.95 | 2.4
5 | CCCCC[C@@H]1NC(=O)[C@H](Cc2ccc(O)cc2)NC(=O)[C@H](Cc2ccccc2)N(C)C(=O)CNC(=O)[C@H](CCCCN)NC(=O)[C@H]2CCCN2C(=O)[C@H](CC(=O)O)NC(=O)[C@H](Cc2ccc(O)cc2)NC(=O)CNC(=O)[C@H](Cc2c[nH]c3ccccc23)NC1=O [Example A53, Lys-Gly-NMePhe-Tyr-Ahp-Trp-Gly-Tyr-Asp-D-Pro, TFA salt] (cyclo([Ahp(2)]WGYD[dP]KG[NMeF]Y)) | 0.72 | 0.4 | 1.3
6 | CCCCC[C@@H]1NC(=O)[C@H](Cc2ccc(O)cc2)NC(=O)[C@H](Cc2ccccc2)N(C)C(=O)CNC(=O)CNC(=O)[C@H]2CCCN2C(=O)[C@H](CCCCNC(C)=O)NC(=O)[C@H](Cc2ccc(O)cc2)NC(=O)CNC(=O)[C@H](Cc2c[nH]c3ccccc23)NC1=O [Example A55, Gly-Gly-NMePhe-Tyr-Ahp-Trp-Gly-Tyr-K(Ac)-D-Pro] (cyclo([Ahp(2)]WGYK(Ac)[dP]GG[NMeF]Y)) | 135 | 24 | 84
7 | CCCCC[C@@H]1NC(=O)[C@H](Cc2ccc(O)cc2)NC(=O)[C@H](Cc2ccccc2)N(C)C(=O)CNC(=O)CNC(=O)[C@H]2CCCN2C(=O)[C@H](C)NC(=O)[C@H](Cc2ccc(O)cc2)NC(=O)CNC(=O)[C@H](Cc2c[nH]c3ccccc23)NC1=O [Example A56, Gly-Gly-NMePhe-Tyr-Ahp-Trp-Gly-Tyr-Ala-D-Pro] (cyclo(A[dP]GG[NMeF]Y[Ahp(2)]WGY)) | 32 | 4.2 | 31
8 | CCCCC[C@@H]1NC(=O)[C@H](Cc2ccc(O)cc2)NC(=O)[C@H](Cc2ccccc2)N(C)C(=O)CNC(=O)CNC(=O)[C@H]2CCCN2C(=O)[C@H](CCO)NC(=O)[C@H](Cc2ccc(O)cc2)NC(=O)CNC(=O)[C@H](Cc2c[nH]c3ccccc23)NC1=O [Example A57, Gly-Gly-NMePhe-Tyr-Ahp-Trp-Gly-Tyr-hSer-D-Pro] (cyclo([Ahp(2)]WGY[hSer][dP]GG[NMeF]Y)) | 19 | 6.6 | 25
9 | CCCCC[C@@H]1NC(=O)[C@H](Cc2ccc(O)cc2)NC(=O)[C@H](Cc2ccccc2)N(C)C(=O)CNC(=O)CNC(=O)[C@H]2CCCN2C(=O)[C@H](CC(N)=O)NC(=O)[C@H](Cc2ccc(O)cc2)NC(=O)CNC(=O)[C@H](Cc2c[nH]c3ccccc23)NC1=O [Example A58, Gly-Gly-NMePhe-Tyr-Ahp-Trp-Gly-Tyr-Asn-D-Pro] (cyclo([Ahp(2)]WGYN[dP]GG[NMeF]Y)) | 75 | 19 | 46
10 | CCCCC[C@@H]1NC(=O)[C@H](Cc2ccc(OCCN)cc2)NC(=O)[C@H](Cc2ccccc2)N(C)C(=O)CNC(=O)CNC(=O)[C@H]2CCCN2C(=O)[C@H](CC(=O)O)NC(=O)[C@H](Cc2ccc(O)cc2)NC(=O)CNC(=O)[C@H](Cc2c[nH]c3ccccc23)NC1=O [Example A59, Gly-Gly-NMePhe-F(4OEtNH2)-Ahp-Trp-Gly-Tyr-Asp-D-Pro, TFA salt] (cyclo([AEF][Ahp(2)]WGYD[dP]GG[NMeF])) | 0.38 | 0.136 | 0.49
11 | CCCCC[C@@H]1NC(=O)[C@H](Cc2ccc(O)cc2)NC(=O)[C@H](CC2CCC2)NC(=O)CNC(=O)CNC(=O)[C@H]2CCCN2C(=O)[C@H](CC(=O)O)NC(=O)[C@H](Cc2ccc(O)cc2)NC(=O)CNC(=O)[C@H](Cc2c[nH]c3ccccc23)NC1=O [Example A60, Gly-Gly-cBuA-Tyr-Ahp-Trp-Gly-Tyr-Asp-D-Pro] (cyclo([Ahp(2)]WGYD[dP]GG[Cba]Y)) | 0.05 | 0.041 | 0.127
12 | CCCCC[C@@H]1NC(=O)[C@H](Cc2ccc(O)cc2)NC(=O)[C@H](Cc2ccccc2)N(C)C(=O)CNC(=O)CNC(=O)[C@H]2CCCN2C(=O)[C@H](CC(=O)O)NC(=O)[C@H](Cc2ccc(O)cc2)NC(=O)CNC(=O)[C@H](Cc2c[nH]c3c(OC)cccc23)NC1=O [Example A61, Gly-Gly-NMePhe-Tyr-Ahp-W(7OMe)-Gly-Tyr-Asp-D-Pro] (cyclo([Ahp(2)][Trp(7-OMe)]GYD[dP]GG[NMeF]Y)) | 0.162 | 0.065 | 0.3
13 | CCCCC[C@@H]1NC(=O)[C@H](Cc2ccc(O)cc2)NC(=O)[C@H](CC2CCC2)N(C)C(=O)CNC(=O)CNC(=O)[C@H]2CCCN2C(=O)[C@H](CC(=O)O)NC(=O)[C@H](Cc2ccc(O)cc2)NC(=O)CNC(=O)[C@H](Cc2c[nH]c3ccccc23)NC1=O [Example A62, Gly-Gly-NMecBuA-Tyr-Ahp-Trp-Gly-Tyr-Asp-D-Pro] (cyclo([Ahp(2)]WGYD[dP]GG[NMeCba]Y)) | 0.32 | 0.063 | 0.31
